pIC50: −log10 of the molar value.
Molecular target: T1, porcine pancreatic lipase (Sus scrofa, UniProt P00591)
T1 construct: purchased Sigma
T1 sequence (P00591 1-450): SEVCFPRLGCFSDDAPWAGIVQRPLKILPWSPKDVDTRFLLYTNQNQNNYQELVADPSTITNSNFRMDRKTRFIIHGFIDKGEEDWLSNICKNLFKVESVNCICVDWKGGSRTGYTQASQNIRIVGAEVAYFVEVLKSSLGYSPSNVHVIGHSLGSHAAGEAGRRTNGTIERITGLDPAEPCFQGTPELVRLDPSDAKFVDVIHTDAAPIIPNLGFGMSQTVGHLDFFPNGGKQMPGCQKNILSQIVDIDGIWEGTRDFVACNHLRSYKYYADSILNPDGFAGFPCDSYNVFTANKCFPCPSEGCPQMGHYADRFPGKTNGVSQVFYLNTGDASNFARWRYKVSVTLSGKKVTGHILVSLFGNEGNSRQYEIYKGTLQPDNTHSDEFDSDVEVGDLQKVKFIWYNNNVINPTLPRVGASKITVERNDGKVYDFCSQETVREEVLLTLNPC
Assay: Lipase inhibitory activity measurement (4-UMO fluorescence substrate)
Format: biochemical
Conditions: for pIC50: 4-UMO substrate, pH 8.0, 25 degrees, 30 minutes of reaction; for lipase inhibitory activity (in words): summary of Table 1
Description: Lipase activity measurement was carried out by using oleic acid ester of fluorescence 4-methylumbelliferone (4-UMO) as a substrate, and measuring the fluorescence of 4-methylumbelliferone produced by reaction.
Substrate 4-UMO (Sigma) is prepared as 0.1 M solution in DMSO and diluted 1000 times with the buffer mentioned above. Similarly, lipase (porcine pancreatic lipase (Sigma)) is prepared as 400 U/ml solution in the buffer mentioned above and used in enzymatic measurement.
50 μl of 4-UMO buffer solution and 25 μl of distilled water (or sample solution) are placed in 96 well microplate and mixed at 25 degrees, followed by adding 25 μl of lipase buffer solution to start enzyme reaction. After 30 minutes of reaction, 100 μl of 0.1 M citric acid buffer (pH 4.2) was added to terminate the reaction, and fluorescence of 4-methylumbelliferone (excitation wavelength: 355 nm, fluorescence wavelength: 460 nm) produced by the reaction was measured with a fluorescence plate reader (Labsystems, Fluoroskan Asent CF).

SMILES	pIC50	lipase inhibitory activity (in words)
O=C(OC[C@H]1OC(OC(=O)c2cc(O)c(O)c(O)c2)[C@H](OC(=O)c2cc(O)c(O)c(O)c2)[C@@H](O)[C@@H]1OC(=O)c1cc(O)c(O)c(O)c1)c1cc(O)c(O)c(O)c1 (some centres unmarked) [1,2,4,6-tetra-GA-Glc (6), 1,2,4,6-tetragalloylglucose]	6.69	showed lipase inhibitory activity
O=C(OCC1OC(OC(=O)c2cc(O)c(O)c(O)c2)C(O)C(O)C1OC(=O)c1cc(O)c(O)c(O)c1)c1cc(O)c(O)c(O)c1 [1,4,6-tri-O-galloyl-D-glucose (4), 1,4,6-tri-O-galloyl-D-glucose]	5.91	showed lipase inhibitory activity
O=C(O)c1cc(O)c(O)c(O)c1 [Galli acid (1), Gallic acid, reference compound]	< 4.30	showed no activity
O=C(O[C@H]1[C@@H]2OC(=O)c3cc(O)c(O)c(O)c3-c3c(cc(O)c(O)c3O)C(=O)OC[C@H]2OC(O)[C@@H]1OC(=O)c1cc(O)c(O)c(O)c1)c1cc(O)c(O)c(O)c1 (some centres unmarked) [Tellimagrandin1 (7), Tellimagrandin 1]	6.90	showed lipase inhibitory activity
O=C(O[C@@H]1O[C@@H]2COC(=O)c3cc(O)c(O)c(O)c3-c3c(cc(O)c(O)c3O)C(=O)O[C@H]2[C@H](OC(=O)c2cc(O)c(O)c(O)c2)[C@H]1OC(=O)c1cc(O)c(O)c(O)c1)c1cc(O)c(O)c(O)c1 [Tellimagrandin2 (8), Tellimagrandin 2]	7.13	showed lipase inhibitory activity
O=C(O[C@@H]1O[C@@H]2COC(=O)c3cc(O)c(O)c(O)c3-c3c(cc(O)c(O)c3O)C(=O)O[C@H]2[C@H](O)[C@H]1O)c1cc(O)c(O)c(O)c1 [strictinin (5), strictinin]	6.33	showed lipase inhibitory activity
O=C(O[C@@H]1C[C@](O)(C(=O)O)C[C@@H](O)[C@H]1O)c1cc(O)c(O)c(O)c1 [theogallin (3), theogallin]	< 4.30	–
O=C(O[C@@H]1O[C@H](CO)[C@@H](O)[C@H](O)[C@H]1O)c1cc(O)c(O)c(O)c1 [β-glucogallin (2), β-glucogallin]	< 4.30	–

— patent US7754695B2, “Lipase inhibitors” (Suntory Holdings Limited, priority 2004, dated 2010)
